What was measured:
[1] = tested on: Skin tissues from a donor; test: Lightness (L* value) of cultured human skin tissue with autophagy-regulating agent; format: cell-based; details: verapamil 10 μM, rapamycin 1 μM or HCQ 10 μM; cultured 8 days; colorimeter; FIG. 10
Experimental: Skin tissues were collected from a donor, and were then cultured in the presence or absence of an autophagy inducer verapamil (10 μM) or rapamycin (1 μM), or an autophagy inhibitor hydroxychloroquine (HCQ, 10 μM). After completion of the culture for 8 days, the lightness (L* value) of the cultured skin was measured with a colorimeter (Colorimeter; cyberDERM).

[2] = tested on: 3D-HSSs (three-dimensional human skin substitutes containing NHEK and NHEM); test: 3D-HSSs cultured with autophagy inducer or inhibitor (photographs, Western blotting); format: cell-based; details: HCQ 10 μM with endothelin-1 and SCF, 14 days
Experimental: Three-dimensional culture human skin models (3D-human skin substitutes; 3D-HSSs) were purchased from MatTek Co. (MEL-300A or B), and they were then maintained at 37° C. in 5% CO2 in EPI-100NMM-113 medium (MatTek Co.) according to a production manual included therewith.
3D-HSSs (three-dimensional human skin substitutes, reconstituted epidermal models containing NHEK and NHEM) were cultured together with an autophagy inducer verapamil (10 μM) or rapamycin (1 μM) for 14 days. The medium was exchanged with a fresh one every other day. After completion of the culture, Western blotting analysis was carried out on the culture, using a p62-specific antibody (MBL International) and an LC3-specific antibody (Cosmo Bio Co. Ltd. or MBL International) by the same procedures as those applied in Reference Example 1.
On the other hand, 3D-HSSs were cultured together with an autophagy inhibitor hydroxychloroquine (HCQ, 10 μM) in the presence of endothelin-1 and SCF for 14 days, and Western blotting analysis was then carried out on the culture.

Compound | lightness (L* value) of the cultured skin [1] | darkening of 3D-HSSs ([2]; FIG. 9C) | amount of p62 ([2]; FIG. 9D)
COc1ccc(CCN(C)CCCC(C#N)(c2ccc(OC)c(OC)c2)C(C)C)cc1OC (stereo not shown) [verapamil] | increased |  | 
CCN(CCO)CCCC(C)Nc1ccnc2cc(Cl)ccc12 (stereo not shown) [hydroxychloroquine] | decreased | became darkened | increased

Reference: US8927517B2, “Factors controlling skin and hair color” (Kao Corporation, priority 2012, dated 2015)
